Source: US8993717B2, “Gadd45beta targeting agents” (Imperial Innovations Limited, priority 2009, dated 2015)
Like-named read-outs stand apart in the source and are kept apart here. Square brackets hold non-standard residues; d marks the D form. Peptide text beside a SMILES is read from it. * marks the point of attachment. Cbz = O=C(OCc1ccccc1)*

How the values were obtained:
[1] = tested on: primary B and T lymphocytes; test: [3H]thymidine incorporation in purified primary B and T lymphocytes; format: cell-based, mouse; conditions: 100 μM, 72 hrs
Experimental: (§1) In order to determine the in vitro therapeutic index of Z-/mDTPs, viability and proliferation assays were also performed with primary untransformed cells of both human and mouse origin, after treatment with either 10 μM or 100 μM of Z-DTP1, Z-DTP2 and Z-DNC. To this end, bone marrow stromal cells (BMSCs) peripheral blood mononuclear cells (PBMNCs) and mesenkymal stem cells (MSCs) were purified from healthy individuals after Ficoll-Hypaque density separation, in accordance with the protocols reported in the reference by Piva R. et all 2008 Blood 111: 2765-2775). BMSCs, PBMNCs, and MSCs cells were then treated for the times indicated and with the peptide concentrations specified in FIGS. 15A and 15B. To further establish the specificity of the cytotoxic activity of Z-/mDTPs for cancer cells, we also used primary B and T lymphocytes purified from the spleen and lymph nodes of mice, respectively, essentially as described in the reference by Shirakawa et al 2010 Cell Mal immunology 1-12. B and T cells were then activated by simulation with 1 ng/mL of LPS for 16 hrs and subsequently treated with 100 μM of Z-DTP1, Z-DTP2 or Z-DNC for 72 hrs as shown in FIG. 15B.

BMSCs, PBMNCs and MSCs = test: Viability/proliferation of primary untransformed human cells; format: cell-based; conditions: up to 100 μM; 48 hrs or 144 hrs
Experimental: as §1

[2] = tested on: KMS11 multiple myeloma cells; test: [3H]thymidine incorporation assay in KMS11; format: cell-based, human; conditions: read-out: IC50 [H^3] thymidine incorporation assay in KMS11
Experimental: Cultures of multiple myeloma cells and treatments with Z-DTPs were carried out as described in Example 8 (see below). The effects of Z-DTPs on the survival/proliferation of multiple myeloma cells were evaluated by the use of [^3H]thymidine) incorporation assays, performed as also described in Example 8. The amount of cell proliferation measured with each of the Z-DTPs' concentrations used and with the untreated cultures (i.e. cultures incubated with medium alone), was expressed as counts per minute (c.p.m.)—which directly correlate with the extent of cell proliferation. All experiments were performed in triplicate.
In these latter assays, the effects of Z-DTPs, Ac-DTPs and Z-LTPs on the survival/proliferation of tumour cell lines was investigated by measuring DNA synthesis using standard tritiated thymidine ([^3H]thymidine; [^3H]-TdR) uptake assays. In the analyses shown, cells were incubated for 24, 72, 120 or 144 hrs at 37° C. in the presence or absence of control or bioactive tetrapeptides, as indicated, then subjected to an additional incubation for 18 hrs with [^3H]-TdR (0.037 MBq/well, equivalent to […]). Cells were subsequently harvested onto glass fibre filter mats using a 96-well plate automated cell harvester, after which scintillation fluid was added, and [^3H]thymidine incorporation measured by liquid scintillation spectroscopy on a beta counter. The results are expressed as the percentages of the counts per minute (c.p.m.) (directly correlating with the extent of cell proliferation) measured with tetrapeptide-treated cultures relative to the c.p.m. measured with the corresponding cultures incubated with medium alone (untreated cells). All experiments were performed in triplicate.

Gadd45β-inhibited MKK7 = target: T1, Gadd45β-inhibited MKK7 (Homo sapiens, UniProt O14733); test: MKK7 kinase assay in the presence of recombinant hGadd45β; format: biochemical; conditions: 1 nM or 5 nM peptide, 5 μM GST-hGadd45β
T1 construct: expressed in transfected cells; host or cells: HEK-293 (FLAG-MKK7); bacteria (GST-hGadd45β)
T1 sequence (O14733 1-419): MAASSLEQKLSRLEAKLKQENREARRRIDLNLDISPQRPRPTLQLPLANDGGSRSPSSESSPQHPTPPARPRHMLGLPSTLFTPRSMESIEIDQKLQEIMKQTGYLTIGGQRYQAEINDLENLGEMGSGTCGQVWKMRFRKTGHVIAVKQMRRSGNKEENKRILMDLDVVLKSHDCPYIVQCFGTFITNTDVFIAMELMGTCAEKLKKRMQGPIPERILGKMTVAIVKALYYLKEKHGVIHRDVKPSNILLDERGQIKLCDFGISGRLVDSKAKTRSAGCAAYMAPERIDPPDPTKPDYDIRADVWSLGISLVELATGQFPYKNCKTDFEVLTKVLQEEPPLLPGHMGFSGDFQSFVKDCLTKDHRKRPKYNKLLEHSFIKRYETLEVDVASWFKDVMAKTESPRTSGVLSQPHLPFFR
Experimental: In FIG. 6, transient transfection of pcDNA-FLAG-MKK7 in HEK-293 cells was performed using the method of Ca3(PO4)2 precipitation, essentially as described in Papa, S et al., (2004) Nat. Cell Biol. 6, 146-153 and references therein. 36 hrs after transfection, the cells were treated with 100 ng/ml phorbol 12-myristate 13-acetate (PMA) and 1 μM ionomycin for 30 min at 37° C. Cell extracts were prepared as described in example 4 and used for immunoprecipitation with anti-FLAG antibodies (binding to FLAG-MKK7) as described in Papa, S et al., (2004) Nat. Cell Biol. 6, 146-153 and references therein. Briefly, 50 μg of cell lysate from PMA-ionomycin (P/D-treated or untreated, HEK-293 cells transiently expressing FLAG-MKK7 was incubated with 10 μl of anti-FLAG M2 Affinity Gel (SIGMA) for 4 hrs at 4° C. during rotation. The immunoprecipitates were then washed 3 times in lysis buffer and twice more in kinase buffer (10 mM HEPES, 5 mM MgCl2, 1 mM MnCl2,12.5 mM β-glycerophosphate, 2 mM DTT, 4 mM NaF and 0.1 mM Na3VO4). MKK7 catalytic activity was finally measured in kinase assays by incubating FLAG-MKK7 immunoprecipitates at 30° C. for 20 min with 20 μl of kinase buffer containing 2 μM of recombinant GST-JNK1 and 5 μCi of [γ-^32P]ATP) (kinase reaction), as described in Papa, S et a., (2004) Nat. Cell Biol. 6, 146-153 and references therein.
In some reactions, to test the ability of D-tetrapeptide antagonists to disrupt the Gadd45β-MKK7 interaction and so release the catalytic activity of MKK7 from Gadd45β-afforded inhibition, FLAG-MKK7 immunoprecipitates were 1) first pre-incubated for 10 min at 30° C. with either 1 nM or 5 nM of DTP1, DTP2 or negative control (NC) D-tetrapeptides, NC1, NC2, NC3 and NC4, and 2) then incubated for another 10 min at 30° C. with or without 5 μM of a GST-fusion protein of recombinant human (h)Gadd45β (GST-hGadd45β; purified from bacterial lysates as described in Papa, S., (2007) J. Biol. Chem. 282, 19029-19041), before using them for the kinase reaction described above, as indicated in FIG. 6.
In all cases, kinase reactions were terminated by the addition of Laemmli sample buffer. […] For a further discussion of MKK7 kinase assay conditions, the reader is directed to Papa, S et al., (2007) J. Biol. Chem. 282, 19029-19041 and Papa, S et al., (2004) Nat. Cell Biol. 6, 146-153 and the references therein.

Row | Structure (SMILES) | toxicity to primary B and T lymphocytes from mice [1] | toxicity to normal primary human cells (BMSCs, PBMNCs, MSCs) (BMSCs, PBMNCs and MSCs) | IC50 ([2]; Day 1) [nM] | IC50 ([2]; Day 6) [nM] | restoration of MKK7 catalytic activity (Gadd45β-inhibited MKK7) | further results
1 | NC(=O)[C@@H](Cc1ccccc1)NC(=O)[C@@H](Cc1c[nH]cn1)NC(=O)[C@@H](CC(=O)O)NC(=O)[C@@H](Cc1ccc(O)cc1)NC(=O)OCc1ccccc1 [Compound 1, Z-Tyr-Asp-His-Phe-NH2] (Cbz-[dY][dD][dH][dF]-NH2) | no toxicity | no toxicity | – | – | – | –
2 | N=C(N)NCCC[C@@H](NC(=O)[C@@H](CCC(=O)O)NC(=O)[C@@H](Cc1ccc(O)cc1)NC(=O)OCc1ccccc1)C(=O)N[C@H](Cc1ccccc1)C(N)=O [Compound 9, Z-D-Tyr-D-Glu-D-Arg-D-Phe-NH2] (Cbz-[dY][dE][dR][dF]-NH2) | no toxicity | no toxicity | 2900 | 66 | – | IC50 ([2]; Day 1, listed as Z-DTP2): 2880 nM; IC50 ([2]; Day 3): 25.7 nM
3 | CC(=O)N[C@H](Cc1ccc(O)cc1)C(=O)N[C@H](CCCNC(=N)N)C(=O)N[C@H](Cc1ccccc1)C(N)=O [Compound 17, Ac-D-Tyr-D-Arg-D-Phe-NH2] (Ac-[dY]-[dR]-[dF]-NH2) | – | – | 1000 | 25 | – | IC50 ([2]; Day 6, listed as mDTP3): 16 nM
4 | CC(=O)N[C@H](Cc1ccc(O)cc1)C(=O)N[C@H](CC(=O)O)C(=O)N[C@H](Cc1c[nH]cn1)C(=O)N[C@H](Cc1ccccc1)C(N)=O [DTP1, Acetyl-(D-Tyr)-(D-Asp)-(D-His)-(D-Phe)-NH2] (Ac-[dY][dD][dH][dF]-NH2) | – | – | – | – | fully restored the catalytic activity of MKK7 | –
5 | CC(=O)N[C@H](Cc1ccc(O)cc1)C(=O)N[C@H](CCC(=O)O)C(=O)N[C@H](CCCNC(=N)N)C(=O)N[C@H](Cc1ccccc1)C(N)=O [DTP2, Acetyl-(D-Tyr)-(D-Glu)-(D-Arg)-(D-Phe)-NH2] (Ac-[dY][dE][dR][dF]-NH2) | – | – | – | – | fully restored the catalytic activity of MKK7 | –
